# What was measured:
# anergic human T-cells = test: Anergic T-cell activation assessed by IFNγ secretion (ionomycin-induced anergy); type: cell-based; conditions: anergic T-cells re-challenged with anti-CD3 and anti-CD28 for 24 hours, read-out: IFNγ Fold change from baseline
# Excerpt: Peripheral blood mononuclear cells (PBMC) were obtained either: 1) by using Ficoll-Paque™ (GE Healthcare) for separation of peripheral blood hematopoietic cells from buffy coats of healthy human donors; or 2) directly from LeukoPak donations. Total human primary T-cells were isolated from the PBMCs utilizing negative selection with commercial kits following the manufacturer's protocol (Miltenyi Catalog #130-096-535 (i.e., cocktail of antibodies against surface markers CD14, CD15, CD16, CD19, CD34, CD36, CD56, CD123 and CD235a were incubated with the PBMCs before passing the samples by magnetic beads for removal of cells expressing those surface markers) or StemCells Catalog #17951) to yield >95% CD3+ cells assessed by flow cytometry. The cells were activated with immobilized anti-CD3 antibody (OKT3) and soluble anti-CD28 antibody (28.2) for two days at which time they are washed and allowed to rest for three days in the absence of stimulation. They were then treated with ionomycin (Sigma) for 18-24 hours to induce anergy. Following two washes to remove the ionomycin from the samples, Cbl-b inhibitor compounds were added to the cells at the indicated concentrations (e.g. 10, 1.11 and 0.37 μM) and incubated for 1 hour. The cells were then re-challenged with anti-CD3 antibody and anti-CD28 antibody for 24 hours at which point cell free supernatants were collected and assessed for cytokines (e.g., IFNγ) by ELISA (R&D Systems or Peprotech) or Luminex multiplex kits (Procarta Life Technologies) following manufacturer's protocols.
# Cbl-b inhibitors were tested to determine their ability to induce or enhance secretion of cytokines from anergic T-cells (e.g. IFNγ), which is indicative of decreased T-cell tolerance.
# Readouts were reported as fold change over baseline. Baseline for this study was the measurement obtained from anergic human T-cells stimulated with immobilized anti-CD3 and soluble anti-CD28, wherein the T-cells were not incubated with a Cbl-b inhibitor (Table 7). For IFNγ changes greater than 2.5-fold over baseline were considered a positive response (Table 7). Compounds were ranked into bins according to their readout as follows for IFNγ: A indicates ≤2.50, B indicates 2.51-4.00 and C indicates >4.01.
# T-cells = test: In vivo activity: CD25 expression on CD4+ or CD8+ T-cells of mice stimulated with anti-CD3 antibody; conditions: 2 μg anti-CD3 antibody, 24 hours
# How it was run: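 C57BL/6 or BALB/c mice dosed with inhibitor (IV, IP, SC or PO, e.g. BID or TID), then stimulated with 2 μg anti-CD3 antibody. Plasma IL-2, IFNγ, TNFα at 8 h and CD25 on CD4+/CD8+ T-cells by flow cytometry at 24 h; fold change over vehicle plus anti-CD3, binned A–E.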
# T-cell = test: CD25 cell surface staining on T-cells stimulated with anti-CD3 antibody alone (Biological Example 2); type: cell-based; conditions: primary human total T-cells, baseline = anti-CD3/anti-CD28 stimulated cells without inhibitor, read-out: CD25 staining, Anti-CD3 stimulation, fold change over baseline; for fold induction at 1 µM: 1 μM compound; for fold induction at 8 µM: 8 μM compound
Structure (SMILES),fold induction at 0.37 µM (anergic human T-cells),fold induction at 1.11 µM (anergic human T-cells),fold induction at 10 µM (anergic human T-cells),CD4+ T-cell % CD25+ (T-cells; 90 mpk IP BID),CD8+ T-cell % CD25+ (T-cells; 90 mpk IP BID),CD4+ T-cell % CD25+ (T-cells; 90 mpk PO BID),CD8+ T-cell % CD25+ (T-cells; 90 mpk PO BID),CD4+ T-cell % CD25+ (T-cells; 135 mpk PO BID),CD8+ T-cell % CD25+ (T-cells; 135 mpk PO BID),CD4+ T-cell % CD25+ (T-cells; 180 mpk PO BID),CD8+ T-cell % CD25+ (T-cells; 180 mpk PO BID),fold induction at 1 µM (T-cell),fold induction at 8 µM (T-cell)
"C[C@H](Cc1nncn1C)c1cccc(NC(=O)c2cccc(C(F)(F)F)n2)c1 [Compound 183a, (R)-N-(3-(1-(4-methyl-4H-1,2,4-triazol-3-yl)propan-2-yl)phenyl)-6-(trifluoromethyl)picolinamide]",≤ 2.5,2.51 to 4,≤ 2.5,D (D indicates 1.00-1.50),D (D indicates 1.00-1.50),,,,,,,,
"Cc1cc(C(=O)Nc2cccc([C@H](C)Cc3nncn3C)c2)nc(C2CC2)n1 [Compound 195, (R)-2-cyclopropyl-6-methyl-N-(3-(1-(4-methyl-4H-1,2,4-triazol-3-yl)propan-2-yl)phenyl)pyrimidine-4-carboxamide]",≤ 2.5,≤ 2.5,≤ 2.5,,,D (D indicates 1.00-1.50),D (D indicates 1.00-1.50),D (D indicates 1.00-1.50),D (D indicates 1.00-1.50),C (C indicates 1.51-2.00),D (D indicates 1.00-1.50),,
"C[C@H](Cc1nncn1C)c1cccc(N2Cc3c(cccc3C(F)(F)F)C2=O)c1 [Compound 255a, (R)-2-(3-(1-(4-methyl-4H-1,2,4-triazol-3-yl)propan-2-yl)phenyl)-4-(trifluoromethyl)isoindolin-1-one]",≤ 2.5,2.51 to 4,≤ 2.5,B (B indicates 2.01-2.50),D (D indicates 1.00-1.50),,,D (D indicates 1.00-1.50),E (E indicates <1.00),,,,
"Cn1cnnc1C(F)(F)[C@](C)(F)c1cccc(N2Cc3c(cc(N4CCNCC4)cc3C(F)(F)F)C2=O)c1 [Compound 442, (R)-6-(Piperazin-1-yl)-2-(3-(1,1,2-trifluoro-1-(4-methyl-4H-1,2,4-triazol-3-yl)propan-2-yl)phenyl)-4-(trifluoromethyl)isoindolin-1-one]",≤ 2.5,2.51 to 4,2.51 to 4,,,,,,,,,> 1,0.801 to 1
Cn1cnnc1C(F)(F)[C@](C)(F)c1cccc(N2Cc3c(cc(CN4CC[C@@H](F)C4)cc3C(F)(F)F)C2=O)c1 [Compound 450],2.51 to 4,2.51 to 4,> 4.01,,,,,,,,,> 1,> 1
"COC1CN(Cc2cc3c(c(C(F)(F)F)c2)CN(c2cccc([C@@](C)(F)C(F)(F)c4nncn4C)c2)C3=O)C1 [Compound 452, (R)-6-((3-methoxyazetidin-1-yl)methyl)-2-(3-(1,1,2-trifluoro-1-(4-methyl-4H-1,2,4-triazol-3-yl)propan-2-yl)phenyl)-4-(trifluoromethyl)isoindolin-1-one]",≤ 2.5,2.51 to 4,> 4.01,,,,,,,,,> 1,> 1
"Cn1cnnc1C(F)(F)[C@](C)(F)c1cccc(N2Cc3c(cc(CN4CC[C@@H](C#N)C4)cc3C(F)(F)F)C2=O)c1 [Compound 455, (R)-1-((3-oxo-2-(3-((R)-1,1,2-trifluoro-1-(4-methyl-4H-1,2,4-triazol-3-yl)propan-2-yl)phenyl)-7-(trifluoromethyl)isoindolin-5-yl)methyl)pyrrolidine-3-carbonitrile]",≤ 2.5,2.51 to 4,> 4.01,,,,,,,,,0.801 to 1,> 1
"C[C@H](Cc1nncn1C)c1cccc(NC(=O)c2cc3cc(N4CCNCC4)ccc3cn2)c1 [Compound 472, N-{3-[(2R)-1-(4-methyl-4H-1,2,4-triazol-3-yl)propan-2-yl]phenyl}-6-(piperazin-1-yl)isoquinoline-3-carboxamide]",≤ 2.5,≤ 2.5,2.51 to 4,,,,,,,,,0.801 to 1,0.801 to 1
